Results taken from ChEMBL document CHEMBL1201862, “PubChem BioAssay data set” (2004).
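Exposure lasted 48 hours, with cells grown in 96-well plates and compounds tested at five concentrations. Abbreviation: GI50, concentration required for 50% inhibition of growth.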 Calls of active or inactive are those of the source. Cut-off read from the data, not from the text of the source: active = GI50 up to about 1.1 µM and inactive = higher.

What was measured:
Assay in all cases: inhibition of tumour cell growth, NCI panel, 48 h
[1] = system: U-251
[2] = system: OVCAR-8
[3] = system: SNB-75
[4] = system: UO-31
[5] = system: A549
[6] = system: CCRF-CEM
[7] = system: KM12
[8] = system: CAKI-1
[9] = system: SW-620
[10] = system: M14
[11] = system: NCI/ADR-RES
[12] = system: SNB-19
[13] = system: NCI-H522
[14] = system: EKVX
[15] = system: HOP-62
[16] = system: SR
[17] = system: T47D
[18] = system: SK-MEL-5
[19] = system: LOX IMVI
[20] = system: RXF 393

Measured: GI50

O=C1OC(C(O)CO)C(O)=C1O (centres undefined)
inactive: [1] > 100 µM | [2] > 100 µM | [3] 99.8 µM | [4] > 100 µM | [5] > 100 µM | [6] > 10 µM | [7] > 100 µM | [8] > 100 µM | [9] > 100 µM | [10] > 100 µM | [11] > 100 µM | [12] > 100 µM | [13] > 100 µM | [14] > 100 µM | [15] > 100 µM | [16] 55.3 µM | [17] > 100 µM | [18] > 100 µM | [19] > 100 µM

COc1ccc(C2=C(N)c3ccccc3C2=O)cc1
inactive: [1] 33.9 µM | [2] 37.8 µM | [3] 27.7 µM | [5] > 100 µM | [6] > 100 µM | [7] > 100 µM | [8] > 100 µM | [9] > 100 µM | [10] > 100 µM | [11] 42.4 µM | [12] 25.7 µM | [13] 69 µM | [14] > 100 µM | [15] 31.2 µM | [16] > 100 µM | [17] > 100 µM | [18] > 100 µM | [19] > 100 µM

O=C(O)c1cc(C(=O)O)cc(N2C(=O)c3ccccc3C2=O)c1
inactive: [1] > 100 µM | [2] > 100 µM | [3] > 100 µM | [4] > 100 µM | [5] > 100 µM | [7] > 100 µM | [8] > 100 µM | [9] > 100 µM | [10] > 100 µM | [11] > 100 µM | [12] > 100 µM | [13] > 100 µM | [14] > 100 µM | [15] > 100 µM | [16] > 100 µM | [17] > 100 µM | [18] > 100 µM | [20] > 100 µM | [19] > 100 µM

Cn1c(-c2ccccc2)c2cc3nc4ccccc4nc3cc2c1-c1ccccc1
inactive: [1] 19.8 µM | [2] 22.1 µM | [3] 26.5 µM | [4] 22.5 µM | [5] 3.94 µM | [7] 11.6 µM | [8] 43.3 µM | [9] 15.8 µM | [10] 6.21 µM | [11] 23.2 µM | [12] 20.2 µM | [13] 15.2 µM | [14] 31 µM | [15] 10.2 µM | [16] 4.56 µM | [17] 24.5 µM | [18] 1.67 µM | [20] 22.3 µM | [19] 14 µM

Cc1[nH]c(=O)nc(S)c1C(=O)Nc1cccc2cc3ccccc3cc12
inactive: [1] > 100 µM | [2] > 100 µM | [3] > 100 µM | [4] > 100 µM | [6] > 100 µM | [7] > 100 µM | [8] > 100 µM | [9] > 100 µM | [10] > 100 µM | [11] > 100 µM | [12] > 100 µM | [14] > 100 µM | [15] > 100 µM | [16] > 100 µM | [17] > 100 µM | [18] > 100 µM | [20] > 100 µM | [19] > 100 µM

COc1ccc(N2C(=O)C3c4[nH]c5cccc(C)c5c4C4CCC(C(C)(C)C)CC4C3C2=O)cc1 (centres undefined)
inactive: [1] 9.91 µM | [2] > 10 µM | [3] 5.15 µM | [4] > 10 µM | [5] > 10 µM | [7] > 10 µM | [8] > 10 µM | [9] > 10 µM | [10] > 10 µM | [11] > 10 µM | [12] > 10 µM | [13] > 10 µM | [14] > 10 µM | [15] > 10 µM | [16] > 10 µM | [17] > 10 µM | [18] > 10 µM | [20] > 10 µM | [19] 8.3 µM

c1ccc2c(c1)nc1n2CNC1
inactive: [1] > 100 µM | [3] > 100 µM | [4] > 100 µM | [5] > 100 µM | [6] > 100 µM | [7] > 100 µM | [8] > 100 µM | [9] > 100 µM | [10] > 100 µM | [11] > 100 µM | [12] > 100 µM | [14] > 100 µM | [15] > 100 µM | [16] > 100 µM | [17] > 100 µM | [18] > 100 µM | [20] > 100 µM | [19] > 100 µM

O=C(N/S(=N/S(=O)(=O)c1ccc(Br)cc1)C(Cl)(Cl)Cl)c1ccccc1 (centres undefined)
inactive: [1] > 100 µM | [2] > 100 µM | [3] 23.3 µM | [4] > 100 µM | [5] > 100 µM | [6] > 100 µM | [7] > 100 µM | [9] > 100 µM | [10] > 100 µM | [11] > 100 µM | [12] > 100 µM | [14] > 100 µM | [15] > 100 µM | [16] 70 µM | [17] > 100 µM | [18] > 100 µM | [20] > 100 µM | [19] > 100 µM

CCOP(=O)(OCC)C(C#N)Cc1ccco1 (centres undefined)
inactive: [1] > 10 µM | [2] > 10 µM | [3] 5.94 µM | [4] > 10 µM | [5] > 10 µM | [6] > 10 µM | [7] > 10 µM | [8] > 10 µM | [9] > 10 µM | [10] > 10 µM | [11] > 10 µM | [12] > 10 µM | [14] > 10 µM | [15] > 10 µM | [16] > 10 µM | [17] > 10 µM | [18] > 10 µM | [20] > 10 µM | [19] > 10 µM

COc1cc(C(=O)Oc2ccc3c(c2)OCO3)cc(OC)c1OC
inactive: [1] > 100 µM | [2] > 100 µM | [3] > 100 µM | [4] > 100 µM | [5] > 100 µM | [7] > 100 µM | [8] > 100 µM | [9] > 100 µM | [10] > 100 µM | [11] > 100 µM | [12] > 100 µM | [13] > 100 µM | [15] > 100 µM | [16] > 100 µM | [17] > 100 µM | [18] > 100 µM | [20] > 100 µM | [19] > 100 µM

CC1(CO)COC(C)(C)OC1
inactive: [1] > 100 µM | [2] > 100 µM | [3] > 100 µM | [4] > 100 µM | [5] > 100 µM | [6] > 100 µM | [7] > 100 µM | [9] > 100 µM | [11] > 100 µM | [12] > 100 µM | [13] > 100 µM | [16] > 100 µM | [17] > 100 µM | [18] > 100 µM | [20] > 100 µM | [19] > 100 µM

COc1ccc(/N=N/C(=N\c2ccc(F)cc2)c2ccc(N(CCC#N)CCC#N)cc2)cc1
inactive: [1] 13.9 µM | [2] 33.5 µM | [3] 24 µM | [4] 68.5 µM | [5] 18.7 µM | [6] 36.1 µM | [7] 16.9 µM | [8] 81.8 µM | [9] 41.6 µM | [10] 28.6 µM | [11] > 100 µM | [12] 31.9 µM | [13] 20 µM | [14] 34.4 µM | [15] 41.8 µM | [16] 21.7 µM | [17] 11.2 µM | [18] 12.4 µM | [20] 15.4 µM

CC(C)SC(=S)Sc1c(Cl)c(Cl)nc(Cl)c1Cl
inactive: [1] 3.98 µM | [2] 3.46 µM | [4] 8 µM | [5] 16.9 µM | [6] 1.91 µM | [7] 8.24 µM | [8] 2.84 µM | [9] 2.88 µM | [10] 12.4 µM | [11] 20.3 µM | [12] 7.55 µM | [13] 4.9 µM | [14] 8.22 µM | [15] 5.85 µM | [16] 2.83 µM | [17] 1.96 µM | [18] 14.8 µM | [20] 4.57 µM | [19] 2.39 µM

CCCCNC(=S)Nc1nc(C(=O)NNS(=O)(=O)c2ccccc2)cs1
inactive: [1] 39.5 µM | [2] 33.7 µM | [3] 35.6 µM | [4] 26.1 µM | [5] 40.3 µM | [6] 44.3 µM | [7] 39.7 µM | [8] 27.7 µM | [10] 40.1 µM | [11] 60.3 µM | [13] 28.8 µM | [14] 31.6 µM | [15] 36.4 µM | [16] 41.1 µM | [17] 71.8 µM | [18] 17 µM | [19] 19.4 µM

COC1C(OC(N)=O)C(O)C(Oc2ccc3c(O)c(NC(=O)c4ccc(O)c(CC=C(C)C)c4)c(=O)oc3c2C)OC1(C)C (centres undefined)
inactive: [1] 99.5 µM | [2] > 100 µM | [3] > 100 µM | [4] > 100 µM | [5] > 100 µM | [6] 77.8 µM | [7] 63 µM | [8] > 100 µM | [9] > 100 µM | [10] > 100 µM | [11] > 100 µM | [12] > 100 µM | [14] > 100 µM | [15] > 100 µM | [16] 18.4 µM | [17] > 100 µM | [18] > 100 µM | [20] > 100 µM
